How the values were obtained:
Test in all cases: Phosphatase Inhibition Assay
[1] = biological target: T1, M-phase inducer phosphatase 1 (Homo sapiens, UniProt P30304); conditions: pH 8; 37 °C
T1 sequence (P30304 whole entry): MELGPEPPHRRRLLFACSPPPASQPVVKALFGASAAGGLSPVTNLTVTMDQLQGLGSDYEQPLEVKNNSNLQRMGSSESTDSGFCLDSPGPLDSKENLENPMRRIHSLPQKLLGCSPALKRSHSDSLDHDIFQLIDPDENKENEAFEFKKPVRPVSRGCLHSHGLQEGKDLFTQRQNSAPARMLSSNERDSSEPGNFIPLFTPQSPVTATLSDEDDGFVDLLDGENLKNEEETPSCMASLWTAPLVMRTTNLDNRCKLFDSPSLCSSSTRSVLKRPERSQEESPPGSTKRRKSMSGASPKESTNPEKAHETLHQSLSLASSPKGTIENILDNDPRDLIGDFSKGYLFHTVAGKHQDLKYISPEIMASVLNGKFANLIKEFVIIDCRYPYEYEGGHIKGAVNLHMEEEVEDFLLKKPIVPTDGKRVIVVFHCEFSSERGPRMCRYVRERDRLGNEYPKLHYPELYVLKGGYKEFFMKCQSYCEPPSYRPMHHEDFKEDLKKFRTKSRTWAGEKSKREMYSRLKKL

[2] = biological target: T2, Tyrosine-protein phosphatase non-receptor type 1 (Homo sapiens, UniProt P18031); conditions: pH 7.2; 37 °C
T2 sequence (P18031 whole entry): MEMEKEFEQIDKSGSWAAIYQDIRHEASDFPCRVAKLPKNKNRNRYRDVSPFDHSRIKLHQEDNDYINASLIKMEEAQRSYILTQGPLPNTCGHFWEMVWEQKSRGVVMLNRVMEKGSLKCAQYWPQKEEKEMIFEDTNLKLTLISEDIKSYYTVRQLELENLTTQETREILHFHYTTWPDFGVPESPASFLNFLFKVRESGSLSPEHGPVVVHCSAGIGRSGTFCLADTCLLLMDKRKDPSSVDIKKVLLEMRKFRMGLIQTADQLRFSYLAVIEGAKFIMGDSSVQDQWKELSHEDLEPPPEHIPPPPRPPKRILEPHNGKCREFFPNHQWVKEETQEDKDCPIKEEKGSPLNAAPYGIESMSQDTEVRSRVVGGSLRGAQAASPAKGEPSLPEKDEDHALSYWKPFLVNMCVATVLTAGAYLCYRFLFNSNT

[3] = biological target: Dual specificity protein phosphatase 3 (Homo sapiens, UniProt P51452); conditions: pH 6.5; 37 °C
Sequence of Dual specificity protein phosphatase 3 (P51452 whole entry): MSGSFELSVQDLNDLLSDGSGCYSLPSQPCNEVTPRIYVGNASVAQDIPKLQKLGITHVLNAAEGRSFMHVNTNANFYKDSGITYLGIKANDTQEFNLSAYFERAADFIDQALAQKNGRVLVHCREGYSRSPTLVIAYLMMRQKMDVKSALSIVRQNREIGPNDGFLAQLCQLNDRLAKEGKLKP

Compound COc1cc(-c2[nH]ccc2Cl)oc1C1=c2[nH]c3cc2[C@H](C(C)C)[C@H]1CCCCCCCC=3 has an IC50 [1] of 28 µM, an IC50 [2] of 38 µM and an IC50 [3] of 32 µM.

Compound C/C(=C1\C=CC=N1)c1ccc(-c2ccc[nH]2)o1 has an IC50 [1] of 40 µM and an IC50 [3] of 4.9 µM.

C/C(=C1\C=CC=N1)c1ccc(-c2[nH]ccc2Cl)o1 [3-chloro-2-(5-{1-[(2Z)-2H-pyrrol-2-ylidene]ethyl}furan-2-yl)-1H-pyrrole, 4] showed an IC50 [1] of 34 µM, an IC50 [2] of 6 µM and an IC50 [3] of 9 µM.

Compound C=CCCCCc1ccc(/C=C2\N=C(c3ccc(CCCC=C)[nH]3)C=C2OC)[nH]1 [Acyclic analogue, 10] has an IC50 [1] greater than 50 µM, an IC50 [2] greater than 50 µM and an IC50 [3] greater than 50 µM.

With C=CCCCCc1ccc(C=C2N=C(c3ccc(C(=O)CCC=C)[nH]3)C=C2OC)[nH]1 [Acyclic analogue, 11] the IC50 [1] was greater than 50 µM, the IC50 [2] was 32 µM and the IC50 [3] was greater than 50 µM.

Compound C=CC/C=C(/C)c1ccc(C2=N/C(=C\c3ccc(CCCCC=C)[nH]3)C(OC)=C2)[nH]1 [Acyclic analogue, 12] has an IC50 [1] greater than 50 µM, an IC50 [2] of 12 µM and an IC50 [3] of 9 µM.

C=CCCCCc1ccc(/C=C2\N=C(c3ccc[nH]3)C=C2OC)[nH]1 [Acyclic analogue, 13] showed an IC50 [1] greater than 50 µM, an IC50 [2] of 11 µM and an IC50 [3] of 11 µM.

Compound CCc1ccc(/C=C2\N=C(c3ccc[nH]3)C=C2OC)[nH]1 [Acyclic analogue, 14] has an IC50 [1] greater than 50 µM, an IC50 [2] of 10 µM and an IC50 [3] of 21 µM.

C=CCCCCc1ccc(/C=C2\N=C(c3ccc(CCCC=C)s3)C=C2OC)[nH]1 [Acyclic analogue, 15] showed an IC50 [1] greater than 50 µM, an IC50 [2] of 28 µM and an IC50 [3] of 39 µM.

For C=CCCCCc1ccc(/C=C2\NC(=O)C=C2OC)[nH]1 [Acyclic analogue, 16], the IC50 [1] was greater than 50 µM, the IC50 [2] was 46 µM and the IC50 [3] was 8 µM.

For CCc1ccc(/C=C2\NC(=O)C=C2OC)[nH]1 [Acyclic analogue, 17], the IC50 [1] was greater than 50 µM, the IC50 [2] was greater than 50 µM and the IC50 [3] was greater than 50 µM.

With COC1=CC(=O)N/C1=C\c1ccc(CCCC/C=C/CCCCC(=O)O)[nH]1 [Acyclic analogue, 18] the IC50 [1] was greater than 50 µM, the IC50 [2] was 16 µM and the IC50 [3] was 21 µM.

Work on COC1=CC2=N/C1=C\c1ccc([nH]1)CCCC/C=C/CCCC1=CC=C2O1 [Cyclic analogue, 7] yielded an IC50 [1] greater than 50 µM, an IC50 [2] of 23 µM and an IC50 [3] of 28 µM.

COC1=CC2=N/C1=C\c1ccc([nH]1)CCCC/C=C/CCCCCCCCCCC1=CC=C2O1 [Cyclic analogue, 8] gave an IC50 [1] greater than 50 µM, an IC50 [2] of 24 µM and an IC50 [3] of 41 µM.

COC1=CC2=N/C1=C\c1ccc([nH]1)CCCC/C=C/CCCc1cccc2c1 [Cyclic analogue, 9] showed an IC50 [1] greater than 50 µM, an IC50 [2] greater than 50 µM and an IC50 [3] of 30 µM.

CC(C)[C@H]1c2cc3[nH]c2=C(c2ccc(-c4ccc[nH]4)o2)[C@@H]1CCCCCCCC=3 [Roseophilin analogue, 3] showed an IC50 [1] greater than 50 µM, an IC50 [2] of 10 µM and an IC50 [3] of 15 µM.

COc1cc(-c2[nH]ccc2Cl)oc1C1=c2[nH]c3cc2[C@@H](C(C)C)[C@@H]1CCCCCCCC=3 [Roseophilin, 2] was tested, and the IC50 [1] was 21 µM, the IC50 [2] was 6 µM and the IC50 [3] was 6 µM.
